ChEMBL document CHEMBL2439993, “Cynaropicrin targets the trypanothione redox system in Trypanosoma brucei” (Bioorg Med Chem, 2013)
The source made the active and inactive calls. No cut-off for these calls is given here.

Columns and labels:
[1] = test system: Trypanosoma brucei rhodesiense; assay: Inhibition of ornithine decarboxylase in Trypanosoma brucei rhodesiense STIB900 assessed as intracellular ornithine level at 50 uM after 20 mins (reference value: 4 +/- 1 uM); format: cell-based
[2] = test system: Trypanosoma brucei rhodesiense; assay: Induction of CYN-thiol adduct formation in Trypanosoma brucei rhodesiense assessed as extracellular CYN level at 50 uM after 5 mins by UHPLC-MS/MS analysis; format: organism-based; settings: in vivo
[3] = Induction of T(SH)2-CYN adduct formation by HPLC-MS analysis; format: physicochemical
[4] = Induction of GS-CYN monoadduct formation by HPLC-MS analysis; format: physicochemical
[5] = test system: Trypanosoma brucei; assay: Antitrypanosomal activity against Trypanosoma brucei assessed as intermediate phenotype at 50 uM after 5 to 10 mins by Giemsa staining-based light microscopy; format: functional, organism-based
[6] = test system: Trypanosoma brucei; assay: Inhibition of trypanothione synthatase in Trypanosoma brucei using GSH as substrate at 200 uM
[7] = test system: Trypanosoma brucei rhodesiense; assay: Induction of CYN-thiol adduct formation in Trypanosoma brucei rhodesiense assessed as GS-CYN monoadduct level at 50 uM after 5 mins by UHPLC-MS/MS analysis; format: organism-based; settings: in vivo
[8] = test system: Trypanosoma brucei rhodesiense; assay: Induction of CYN-thiol adduct formation in Trypanosoma brucei rhodesiense assessed as T(S-CYN)2 bisadduct level at 50 uM after 5 mins by UHPLC-MS/MS analysis; format: organism-based; settings: in vivo
[9] = test system: Trypanosoma brucei rhodesiense; assay: Induction of CYN-thiol adduct formation in Trypanosoma brucei rhodesiense assessed as extracellular CYN level at 50 uM after 30 mins by UHPLC-MS/MS analysis; format: organism-based; settings: in vivo, 0.5 h
[10] = test system: Trypanosoma brucei rhodesiense; assay: Induction of CYN-thiol adduct formation in Trypanosoma brucei rhodesiense assessed as extracellular CYN level at 50 uM after 20 mins by UHPLC-MS/MS analysis; format: organism-based; settings: in vivo
[11] = test system: Trypanosoma cruzi; assay: Inhibition of trypanothione reductase in Trypanosoma cruzi using T(S)2 as substrate at 100 to 200 uM after 240 mins by spectrophotometry in presence of NADPH
[12] = test system: Trypanosoma brucei; assay: Antitrypanosomal activity against Trypanosoma brucei assessed as stumpy phenotype at 50 uM after 40 mins by Giemsa staining-based light microscopy; format: functional, organism-based
[13] = test system: Trypanosoma brucei; assay: Irreversible inhibition of trypanothione synthatase in Trypanosoma brucei using GSH as substrate at 200 uM after 240 mins
[14] = test system: Trypanosoma brucei rhodesiense; assay: Induction of CYN-thiol adduct formation in Trypanosoma brucei rhodesiense assessed as extracellular CYN level at 50 uM after 40 mins by UHPLC-MS/MS analysis; format: organism-based; settings: in vivo
[15] = test system: Trypanosoma brucei rhodesiense; assay: Induction of CYN-thiol adduct formation in Trypanosoma brucei rhodesiense assessed as extracellular CYN level at 50 uM after 10 mins by UHPLC-MS/MS analysis; format: organism-based; settings: in vivo
[16] = test system: Trypanosoma brucei rhodesiense; assay: Reduction of T(SH)2 level in Trypanosoma brucei rhodesiense at 50 uM after 40 mins by UHPLC-MS/MS analysis; format: functional, organism-based
[17] = test system: Trypanosoma brucei rhodesiense; assay: Reduction of GSH level in Trypanosoma brucei rhodesiense at 50 uM after 40 mins by UHPLC-MS/MS analysis; format: functional, organism-based
[18] = test system: Trypanosoma brucei rhodesiense; assay: Induction of CYN-thiol adduct formation in Trypanosoma brucei rhodesiense assessed as intracellular CYN level at 50 uM after 5 mins by UHPLC-MS/MS analysis; format: organism-based; settings: in vivo

SMILES | INH [1] | Activity [2] | Activity [3] | Activity [4] | Activity [5] | inhibition [6] | Activity [7] | Activity [8] | Activity [9] | Activity [10] | inhibition [11] | Activity [12] | inhibition [13] | Activity [14] | Activity [15] | Activity [16] | Activity [17] | Activity [18]
NCCCC(N)(C(=O)O)C(F)F (centres undefined) | 48 µM |  |  |  |  |  |  |  |  |  |  |  |  |  |  |  |  | 
C=C(CO)C(=O)O[C@H]1CC(=C)[C@@H]2C[C@H](O)C(=C)[C@@H]2[C@H]2OC(=O)C(=C)[C@@H]21 [CYNAROPICRIN] | 50 µM | 34.9 µM | Active | Active | Active | inactive | 42 µM | 49 µM | 33.3 µM | 35.8 µM | inactive | Active | 51% | 37.1 µM | 39.6 µM | Active | Active | 23 µM
